By EC50 is commonly meant the concentration giving half of the maximal effect.

The structures appear in SMILES notation.

This assay concerns the target Beta-galactosidase (Escherichia coli, UniProt Q8VNN2). Briefly: PubChem AID 485352.

Beta-galactosidase, sequence (Q8VNN2 whole entry): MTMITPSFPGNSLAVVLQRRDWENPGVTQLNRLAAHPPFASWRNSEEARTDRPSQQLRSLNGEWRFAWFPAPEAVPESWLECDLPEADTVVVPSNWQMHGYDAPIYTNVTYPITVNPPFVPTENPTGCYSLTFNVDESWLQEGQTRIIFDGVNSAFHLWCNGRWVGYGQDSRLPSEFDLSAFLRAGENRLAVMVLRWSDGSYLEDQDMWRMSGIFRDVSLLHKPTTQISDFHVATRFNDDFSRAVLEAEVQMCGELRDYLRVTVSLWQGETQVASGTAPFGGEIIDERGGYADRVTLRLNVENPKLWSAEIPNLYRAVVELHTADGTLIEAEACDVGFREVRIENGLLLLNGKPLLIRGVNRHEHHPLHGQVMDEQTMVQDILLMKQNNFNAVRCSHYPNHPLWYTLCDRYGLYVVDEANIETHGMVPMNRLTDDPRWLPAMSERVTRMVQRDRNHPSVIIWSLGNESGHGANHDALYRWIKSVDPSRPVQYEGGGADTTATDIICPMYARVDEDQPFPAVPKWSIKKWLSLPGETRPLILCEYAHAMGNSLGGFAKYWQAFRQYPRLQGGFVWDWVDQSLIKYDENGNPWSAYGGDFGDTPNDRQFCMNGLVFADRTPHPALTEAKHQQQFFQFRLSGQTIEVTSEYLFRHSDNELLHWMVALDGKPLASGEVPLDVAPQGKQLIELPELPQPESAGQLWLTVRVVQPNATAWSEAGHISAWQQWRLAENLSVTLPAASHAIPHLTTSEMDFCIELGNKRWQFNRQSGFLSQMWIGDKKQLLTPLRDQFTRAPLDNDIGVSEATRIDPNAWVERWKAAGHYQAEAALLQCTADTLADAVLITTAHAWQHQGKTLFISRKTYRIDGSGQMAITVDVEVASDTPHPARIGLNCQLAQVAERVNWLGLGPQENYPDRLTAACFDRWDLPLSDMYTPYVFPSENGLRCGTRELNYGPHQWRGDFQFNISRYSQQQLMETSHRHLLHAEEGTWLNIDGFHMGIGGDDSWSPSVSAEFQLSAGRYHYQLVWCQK

As for `CCOC(=O)C1C(C)=NC2=C(C(=O)CC(c3cccs3)C2)C1c1cccs1` (stereo unspecified) [2-Methyl-5-oxo-4,7-di-thiophen-2-yl-1,4,5,6,7,8-hexahydro-quinoline-3-carboxylic acid ethyl ester], a half-maximal effect (EC50) was put at 39.3 µM.

For the origin of these results see BindingDB's records for doi:10.7270/Q2SN07DK (Burnham Center For Chemical Genomics, 2010).
